29 molecules from patent US20230295259A1 (Protagonist Therapeutics, Inc., priority 2020, published 2023) can be followed below.

The EC50 is the concentration needed to bring the measured effect to its halfway point.

Non-standard residues stand in square brackets, D forms with d. Groups on a side chain read outwards from the residue. *: point of attachment. C18 diacid = O=C(O)CCCCCCCCCCCCCCCCC(=O)*; Dip = N[C@H](C(=O)O)C(c1ccccc1)c1ccccc1; β3hF = N[C@H](CC(=O)O)Cc1ccccc1; Isovaleryl = CC(C)CC(=O)*; AEEA = NCCOCCOCC(=O)O; Ahx = NCCCCCC(=O)O

B1: Seq. No. 577 (peptide)
peptide: Isovaleryl-ETH[Dip]PCCK([AEEA-AEEA-Ahx-C18 diacid])[β3hF][dK]-NH2
modifications: not fully specified (bridges); cysteine pairing not given here

One assay addresses T1, human ferroportin (SLC40A1) fused in frame with GFP, stably expressed in HEK293 cells (human, UniProt Q9NP59 1-571).
T1 sequence (looked up): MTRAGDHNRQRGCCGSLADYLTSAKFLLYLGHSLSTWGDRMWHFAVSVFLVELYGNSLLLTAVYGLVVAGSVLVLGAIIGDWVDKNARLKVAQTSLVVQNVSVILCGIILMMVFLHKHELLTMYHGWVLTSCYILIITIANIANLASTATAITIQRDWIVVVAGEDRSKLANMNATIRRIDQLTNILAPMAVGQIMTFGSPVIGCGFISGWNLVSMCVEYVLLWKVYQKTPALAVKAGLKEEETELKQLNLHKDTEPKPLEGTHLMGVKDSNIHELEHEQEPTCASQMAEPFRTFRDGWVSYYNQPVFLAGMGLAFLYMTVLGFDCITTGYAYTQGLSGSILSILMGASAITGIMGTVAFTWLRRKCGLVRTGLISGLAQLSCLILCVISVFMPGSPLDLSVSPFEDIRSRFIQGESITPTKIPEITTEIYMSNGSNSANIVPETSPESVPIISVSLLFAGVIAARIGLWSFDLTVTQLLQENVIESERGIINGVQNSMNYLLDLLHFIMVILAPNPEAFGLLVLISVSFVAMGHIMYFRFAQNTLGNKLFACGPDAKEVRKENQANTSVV
Description: cell-based or functional assay.
Details: not given
As for B1, the “IC50: FPN internalisation” value was found to be 0.002 µM.

The next assay concerns LAD2 cells.
Experiment: not given
Details: not given
It is filed as cell-based, human. From the text: In anaphylactoid reactions, the main mechanism involves the direct stimulation of mast cells or basophils, leading to the release of anaphylactic mediators such as histamine and β-hexosaminidase. A recent study by McNeil et al. (McNeil B D et al., 2015) reported that MrgprX2, a specific membrane receptor on human mast cells, induces anaphylactoid reactions. The LAD2 (Laboratory of Allergic Diseases 2) human mast cell line, derived from human mast cell sarcoma/leukemia (Kirshenbaum et al., 2003), is commonly employed to study anaphylactoid reactions, because its biological properties are identical to those of primary human mast cells, including the overexpression of the MrgprX2 receptor and sensitivity towards degranulating peptides (Kulka et al., 2008). The release of anaphylactic mediators such as f-hexosaminidase, is assessed by fluorometric quantification.
On the day of the assay, serial dilutions of compounds were added to LAD2 cells plated at 20000 cells/well in a 96-well plate. After incubation for 30 minutes, the amount of β-hexosaminidase released into the supernatants and in cell lysates was quantified using the fluorogenic substrate 4-methylumbelliferyl-N-acetyl-b-D-glucosaminide. Dose-response curves were generated by plotting the % of β-hexosaminidase release (y-axis) against the concentrations of peptides tested (x-axis). […]. (Table 2D).
`CC[C@H](C)C1NC(=O)[C@@H](NC(=O)[C@@H]2CCCN2C(=O)[C@@H](NC(=O)[C@H](Cc2cnc[nH]2)NC(=O)[C@@H](NC(=O)[C@H](CCC(=O)O)NC(=O)CC(C)C)[C@@H](C)O)C(c2ccccc2)c2ccccc2)CSSC[C@@H](C(N)=O)NC(=O)[C@@H](CCCCN)NC(=O)C[C@H](Cc2ccccc2)CC(=O)C(CCCCNC(=O)CCOCCOCCOCCOCCOCCOCCOCCOCCOCCOCCOCCOCCNC(=O)CCCCCCCCCCCCCCCCC(=O)O)NC1=O` (some centres unmarked) [Compound 113, Isovaleric Acid-E-T-H-[Dpa]-P-[Cys]-I-[Lys(2Peg11′_C18_Diacid)]-[bhPhe]-[(D)Lys]-[Cys]-NH2]: the EC50 is 27 µM.

`CC[C@H](C)[C@@H]1NC(=O)[C@@H](NC(=O)[C@@H]2CCCN2C(=O)[C@@H](NC(=O)[C@H](Cc2cnc[nH]2)NC(=O)[C@@H](NC(=O)[C@H](CCC(=O)O)NC(=O)CC(C)C)[C@@H](C)O)C(c2ccccc2)c2ccccc2)CSSCC(C(N)=O)NC(=O)[C@@H](CCCCNC(=O)CCOCCOCCOCCOCCOCCOCCOCCOCCOCCOCCOCCOC)NC(=O)C[C@H](Cc2ccccc2)NC(=O)[C@H](CCCCNC(=O)COCCOCCNC(=O)COCCOCCNC(=O)CCCCCNC(=O)CCCCCCCCCCCCCCCCC(C)=O)NC1=O` (some centres unmarked) [Compound 255, Isovaleric Acid-E-T-H-[Dpa]-P—C—I-[Lys(1PEG2_1PEG2_Ahx_C18_Diacid)]-[bhPhe]-[(D)Lys(PEG11_OMe)]—C—NH2]: the EC50 is > 100 µM.

In the case of `CC[C@H](C)[C@@H]1NC(=O)[C@@H](NC(=O)[C@@H]2CCCN2C(=O)[C@@H](NC(=O)[C@H](Cc2cnc[nH]2)NC(=O)[C@@H](NC(=O)[C@H](CCC(=O)O)NC(=O)CC(C)C)[C@@H](C)O)C(c2ccccc2)c2ccccc2)CSSC[C@@H](C(N)=O)NC(=O)[C@@H](CCCCNC(=O)CCOCCOCCOCCOCCOCCOCCOCCOC)NC(=O)C[C@H](Cc2ccccc2)NC(=O)[C@H](CCCCNC(=O)COCCOCCNC(=O)COCCOCCNC(=O)CCCCCNC(=O)CCCCCCCCCCCCCCCCC(=O)O)NC1=O` [Compound 256, Isovaleric Acid-E-T-H-[Dpa]-P—C—I-[Lys(1PEG2_1PEG2_Ahx_C18_Diacid)]-[bhPhe]-[(D)Lys(PEG7_OMe)]—C—NH2], the EC50 is > 100 µM.

For `CCCCCCCCCCCCCCCC(=O)NCCCCCC(=O)NCCCC[C@@H]1NC(=O)C[C@H](Cc2ccccc2)NC(=O)[C@@H](CCCCNC(=O)CCOCCOCCOCCOCCOCCOCCOCCOCCOCCOCCOCCOC)NC(=O)[C@H](C(C)CC)NC(=O)C(NC(=O)[C@@H]2CCCN2C(=O)[C@@H](NC(=O)[C@H](Cc2cnc[nH]2)NC(=O)[C@@H](NC(=O)[C@H](CCC(=O)O)NC(=O)CC(C)C)[C@@H](C)O)C(c2ccccc2)c2ccccc2)CSSC[C@@H](C(N)=O)NC(=O)[C@@H](CCCCNC(=O)CCOCCOCCOCCOCCOCCOCCOCCOCCOCCOCCOCCOC)NC1=O` (some centres unmarked) [Compound 19, Isovaleric Acid-E-T-H-[Dpa]-P-[Cys]-I-[(D)Lys(2Peg11′_OMe)]-[bhPhe]-[Lys(Ahx_Palm)]-[(D)Lys(2Peg11′_OMe)]-[Cys]-NH2], the EC50 is > 100 µM.

Regarding `CC[C@H](C)[C@@H]1NC(=O)[C@@H](NC(=O)[C@@H]2CCCN2C(=O)[C@@H](NC(=O)[C@H](Cc2cnc[nH]2)NC(=O)[C@@H](NC(=O)[C@H](CCC(=O)O)NC(=O)CC(C)C)[C@@H](C)O)C(c2ccccc2)c2ccccc2)CSSC[C@@H](C(N)=O)NC(=O)[C@@H](CCCCN)NC(=O)C[C@H](Cc2ccccc2)NC(=O)[C@H](CCCCNC(=O)COCCOCCNC(=O)COCCOCCNC(=O)CC[C@H](NC(=O)CCCCCCCCCCCCCCCCC(=O)O)C(=O)O)NC1=O` [Compound 107, Isovaleric Acid-E-T-H-[Dpa]-P-[Cys]-I-[Lys(1Peg2_1Peg2_IsoGlu_C18_Diacid)]-[bhPhe]-[(D)Lys]-[Cys]-NH2], the EC50 was > 33 µM.

The same assay, now with this note: LAD2 mast cells, β-hexosaminidase release, 30 minutes incubation; read-out: EC50: LAD2.
Take “Isovaleric Acid-E-T-H-[Dpa]-P—C—I-[Lys(1PEG2_1PEG2_Ahx_C18_Diacid)]-[bhPhe]-[(D)Lys]-[Pen]-NH2 [Compound 280]”: the EC50 amounted to 24.3 µM.

As for “Isovaleric Acid-E-T-H—F—P—C—I-[Lys(Ahx_Palm)]-F-E-P—R—S—K-G-C—K—NH2 [Compound 223]”, the EC50 was 0.7 µM.

Regarding “Isovaleric Acid-E-T-H—F—P—C—I-[Lys(IsoGlu_C18_Diacid)]-F-E-P—R—S—K-G-C—K—NH2 [Compound 222]”, the EC50 was > 100 µM.

On to “Isovaleric Acid-E-T-H-[Dpa]-P—C—I-[Lys(PEG12_C16_Diacid)]-[bhPhe]-[(D)Lys]-C—NH2 [Compound 265]”, for which the EC50 stood at 23.1 µM.

Turning to “Isovaleric Acid-E-T-H-[Dpa]-P—C—I-[Lys(PEG12_IsoGlu_Palm)]-[bhPhe]-[(D)Lys(PEG11_OMe)]—C—NH2 [Compound 291]”, the EC50 is > 100 µM.

Regarding “Isovaleric Acid-E-T-H—F—P—C—I-[Lys(1PEG2_1PEG2_IsoGlu_C18_Diacid)]-F-E-P—R—S—K-G-C—NH2 [Compound 206]”, the EC50 was > 100 µM.

With “Isovaleric Acid-E-T-H-[Dpa]-P—C—I-[Lys(PEG4_PEG4_IsoGlu_C18_Diacid)]-[bhF]-[(D)Lys]-C—NH2 [Compound 237]”, the EC50 is > 100 µM.

On to “Isovaleric Acid-E-T-H—F—P—C—I-[Lys(IsoGlu_Palm)]-F-E-P—R-S-G-C—NH2 [Compound 226]”, for which the EC50 was 15.7 µM.

In the case of “Isovaleric Acid-E-T-H—F—P—C—I-[Lys(IsoGlu_Palm)]-F-E-P—R—S—K-G-[Pen]-K—NH2 [Compound 224]”, the EC50 turned out to be 2.6 µM.

Consider “Isovaleric Acid-E-T-H-[Dpa]-P—C—I-[Lys(1PEG2_1PEG2_IsoGlu_C16_Diacid)]-[bhPhe]-[(D)Lys]-C—NH2 [Compound 232]”, for which the EC50 was > 100 µM.

In the case of “Isovaleric Acid-E-T-H-[Dpa]-P—C—I-[Lys(1PEG8_IsoGlu_C18_Diacid)]-[bhPhe]-[(D)Lys]-C—NH2 [Compound 238]”, the EC50 is > 100 µM.

For “Isovaleric Acid-E-T-H-[Dpa]-P-[Cys]-I-[Lys(2Peg11′_IsoGlu_C18)]-[bhPhe]-[(D)Lys]-[Cys]-NH2 [Compound 112]”, the EC50 was 0.52 µM.

As to “Isovaleric Acid-E-T-H-[Dpa]-P—C—I-[Lys(PEG12_IsoGlu_C18_Diacid)]-[bhPhe]-[(D)Lys(PEG11_OMe)]—C—NH2 [Compound 292]”, the EC50 is > 100 µM.

For the molecule “Isovaleric Acid-E-T-H-[Dpa]-P—C—I-[Lys(1PEG2_1PEG2_IsoGlu_C12_Diacid)]-[bhPhe]-[(D)Lys]-C—NH2 [Compound 234]”, the EC50 is > 100 µM.

Regarding “Isovaleric Acid-E-T-H-[Dpa]-P—C—I-[Lys(1PEG2_1PEG2_IsoGlu_C18_Diacid)]-[bhPhe]-[(D)Lys]-[Pen]-NH2 [Compound 281]”, the EC50 was > 100 µM.

Consider “Isovaleric Acid-[Glu_OMe]-T-H-[Dpa]-P—C—I-[Lys(1PEG2_1PEG2_Ahx_C18_Diacid)]-[bhPhe]-[(D)Lys]-C—NH2 [Compound 277]”, for which the EC50 came to 11.7 µM.

Take “Isovaleric Acid-E-T-H-[Dpa]-P—C—I-[Lys(PEG4_IsoGlu_C18_Diacid)]-[bhF]-[(D)Lys]-C—NH2 [Compound 239]”: the EC50 was > 100 µM.

For the molecule “Isovaleric Acid-E-T-H-F—P—C—I-[Lys(IsoGlu_Palm)]-F-E-P—R-S—K-G-C—NH2 [Compound 225]”, the EC50 is 4.8 µM.

Turning to “Isovaleric Acid-E-T-H-[Dpa]-P—C—I-[Lys(PEG12_C18_Diacid)]-[bhPhe]-[(D)Lys(PEG11_OMe)]—C—NH2 [Compound 293]”, the EC50 was > 100 µM.

For the molecule “Isovaleric Acid-E-T-H-[Dpa]-P—C—I-[Lys(1PEG2_1PEG2_IsoGlu_C14_Diacid)]-[bhPhe]-[(D)Lys]-C—NH2 [Compound 233]”, the concentration giving a half-maximal response (EC50) was > 100 µM.

“Isovaleric Acid-E-T-H—F—P—C—I-[Lys(1PEG2_1PEG2_IsoGlu_C18_Diacid)]-F-E-P—R—S—K-G-C—K—NH2 [Compound 220]”: the EC50 was > 33 µM.

For the molecule “Isovaleric Acid-E-T-H—F—P—C—I-[Lys(1PEG2_1PEG2_Ahx_C18_Diacid)]-F-E-P—R—S—K-G-C—K—NH2 [Compound 221]”, the EC50 was > 100 µM.

As to “Isovaleric Acid-E-T-H-[Dpa]-P—C—I-[Lys(1PEG2_1PEG2_1PEG2_C18_Diacid)]-[bhPhe]-[(D)Lys]-C—NH2 [Compound 254]”, the EC50 is > 33 µM.
